According to the supplement of paper PMC11208160:

Experiment: recombinant UMI read abundance after kanamycin selection (control-corrected) (log10(CPM+1)); higher = more efficient recombination; extreme values may be limits of the assay; sequences stand for … in AGTGCAGAGAAAATCGGCCAGTTTTCTCTGCCTGCAGTCCGCATGCCGTGGGACCCCTTGGGTTCTAACCTGTTGCCTAGATTTATGCAGCGGACTGCCTTTCTCCCAAAGTGATAAACCGG…AGGTTGGTTTCACT; site = the 11-nt donor
In short: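 Counts of recombinant UMIs were reported as log10(CPM+1). Before that, they were converted to CPM, averaged over replicates and scaled using control-derived factors. They came from PCR across the donor–target junction after Escherichia coli carrying the pair library and target plasmid was plated on IPTG (0.07 mM) plus kanamycin, or unselected, in two replicates each.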
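Further: IS621 bridge recombinase in Escherichia coli cells against a fixed T5 target plasmid.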

| Sequence | recombinant UMI read abundance (log10) |
| --- | --- |
| GACACGCCATGGACCGGTTTTCCCGGTAATCCGTATTTGTA (site GTCACGCCTTA) | 0.0098 |
| GACACGCCATGGACCGGTTTTCCCGGTAATCCGTATTTGTG (site GACACGCCTCA) | 0.149 |
| GACAGACCATGGACCGGTTTTCCCGGTAATCCGTATTTGGT (site GACAAACCTAC) | 0 |
| GACAGACCATGGACCGGTTTTCCCGGTAATCCGTATTTGGT (site GACACACCTAC) | 0.00419 |
| GACAGACCATGGACCGGTTTTCCCGGTAATCCGTATTTGGT (site GACAGACCTAC) | 0.0145 |
| GACAGACCATGGACCGGTTTTCCCGGTAATCCGTATTTGGT (site GACATACCTAC) | 0 |
| GACATACCATGGACCGGTTTTCCCGGTAATCCGTATTTGGC (site GACATACCTGC) | 0 |
| GACCCATCATGGACCGGTTTTCCCGGTAATCCGTATTTGGA (site GACCCATCTTC) | 1.26 |
| GACCGGGCATGGACCGGTTTTCCCGGTAATCCGTATTTGAT (site GACCGGGCTAT) | 0.662 |
| GACCGTCCATGGACCGGTTTTCCCGGTAATCCGTATTTGAT (site AACCGTCCTAT) | 0 |
| GACCGTCCATGGACCGGTTTTCCCGGTAATCCGTATTTGAT (site CACCGTCCTAT) | 0.00334 |
| GACCGTCCATGGACCGGTTTTCCCGGTAATCCGTATTTGAT (site GACCGTCCTAT) | 0.0192 |
| GACCGTCCATGGACCGGTTTTCCCGGTAATCCGTATTTGAT (site TACCGTCCTAT) | 0.0517 |
| GACCTCACATGGACCGGTTTTCCCGGTAATCCGTATTTGTA (site GACCTCACTTA) | 0.0239 |
| GACGAAACATGGACCGGTTTTCCCGGTAATCCGTATTTGTA (site GACGAAACTTA) | 2.54 |
| GACGAAGCATGGACCGGTTTTCCCGGTAATCCGTATTTGCT (site GACGAAGCTAG) | 2.11 |
| GACGCCACATGGACCGGTTTTCCCGGTAATCCGTATTTGAA (site GACGCCACTTT) | 0.827 |
| GACGCCGCATGGACCGGTTTTCCCGGTAATCCGTATTTGAG (site GACGCCGCTCT) | 0.349 |
| GACGCTACATGGACCGGTTTTCCCGGTAATCCGTATTTGCA (site GACGCTACTTG) | 1.36 |
| GACTATCCATGGACCGGTTTTCCCGGTAATCCGTATTTGCT (site GAATATCCTAG) | 0.00525 |
| GACTATCCATGGACCGGTTTTCCCGGTAATCCGTATTTGCT (site GACTATCCTAG) | 1.29 |
| GACTATCCATGGACCGGTTTTCCCGGTAATCCGTATTTGCT (site GAGTATCCTAG) | 0 |
| GACTATCCATGGACCGGTTTTCCCGGTAATCCGTATTTGCT (site GATTATCCTAG) | 0 |
| GACTCACCATGGACCGGTTTTCCCGGTAATCCGTATTTGAC (site GACTCACCTGT) | 0 |
| GACTCCCCATGGACCGGTTTTCCCGGTAATCCGTATTTGCA (site GACTCCCCTTG) | 1.3 |

| Sequence | recombinant UMI read abundance (log10) |
| --- | --- |
| GACTCCTCATGGACCGGTTTTCCCGGTAATCCGTATTTGCC (site AACTCCTCTGG) | 1.71 |
| GACTCCTCATGGACCGGTTTTCCCGGTAATCCGTATTTGCC (site CACTCCTCTGG) | 1.86 |
| GACTCCTCATGGACCGGTTTTCCCGGTAATCCGTATTTGCC (site GACTCCTCTGG) | 2.02 |
| GACTCCTCATGGACCGGTTTTCCCGGTAATCCGTATTTGCC (site TACTCCTCTGG) | 2.07 |
| GACTTAGCATGGACCGGTTTTCCCGGTAATCCGTATTTGTG (site GACTTAGCTCA) | 0.251 |
| GACTTGACATGGACCGGTTTTCCCGGTAATCCGTATTTGCT (site AACTTGACTAG) | 1.3 |
| GACTTGACATGGACCGGTTTTCCCGGTAATCCGTATTTGCT (site CACTTGACTAG) | 0.596 |
| GACTTGACATGGACCGGTTTTCCCGGTAATCCGTATTTGCT (site GACTTGACTAG) | 0.984 |
| GACTTGACATGGACCGGTTTTCCCGGTAATCCGTATTTGCT (site TACTTGACTAG) | 0.923 |
| GACTTGGCATGGACCGGTTTTCCCGGTAATCCGTATTTGGA (site AACTTGGCTTC) | 0.227 |
| GACTTGGCATGGACCGGTTTTCCCGGTAATCCGTATTTGGA (site CACTTGGCTTC) | 0.579 |
| GACTTGGCATGGACCGGTTTTCCCGGTAATCCGTATTTGGA (site GACTTGGCTTC) | 0.654 |
| GACTTGGCATGGACCGGTTTTCCCGGTAATCCGTATTTGGA (site TACTTGGCTTC) | 0.28 |
| GACTTTCCATGGACCGGTTTTCCCGGTAATCCGTATTTGAC (site GACTTTCCTGT) | 0.0655 |
| GAGAATGCATGGACCGGTTTTCCCGGTAATCCGTATTTGCT (site GAGAATGCTAG) | 2.16 |
| GAGACGCCATGGACCGGTTTTCCCGGTAATCCGTATTTGAT (site GAGACGCCTAT) | 0.566 |
| GAGATTCCATGGACCGGTTTTCCCGGTAATCCGTATTTGGG (site GAGATTCCTCC) | 0.0141 |
| GAGCACACATGGACCGGTTTTCCCGGTAATCCGTATTTGAT (site GAGCACACTAT) | 1.9 |
| GAGCACACATGGACCGGTTTTCCCGGTAATCCGTATTTGAT (site GAGCCCACTAT) | 0.0144 |
| GAGCACACATGGACCGGTTTTCCCGGTAATCCGTATTTGAT (site GAGCGCACTAT) | 0.00425 |
| GAGCACACATGGACCGGTTTTCCCGGTAATCCGTATTTGAT (site GAGCTCACTAT) | 0 |
| GAGCCGGCATGGACCGGTTTTCCCGGTAATCCGTATTTGAA (site GAGCCGGCTTT) | 0.241 |
| GAGCCGTCATGGACCGGTTTTCCCGGTAATCCGTATTTGAT (site GAGCCGTCTAT) | 1.32 |
| GAGCCTCCATGGACCGGTTTTCCCGGTAATCCGTATTTGAG (site GAGCCTCCTCT) | 0.0215 |
| GAGCGCTCATGGACCGGTTTTCCCGGTAATCCGTATTTGCG (site GAGCGCTCTCG) | 2.26 |

| Sequence | recombinant UMI read abundance (log10) |
| --- | --- |
| GAGCGGACATGGACCGGTTTTCCCGGTAATCCGTATTTGGC (site GAGCGGACTGC) | 2.85 |
| GAGCTACCATGGACCGGTTTTCCCGGTAATCCGTATTTGGC (site GAGCTACCTGC) | 0 |
| GAGCTAGCATGGACCGGTTTTCCCGGTAATCCGTATTTGAA (site AAGCTAGCTTT) | 1.5 |
| GAGCTAGCATGGACCGGTTTTCCCGGTAATCCGTATTTGAA (site CAGCTAGCTTT) | 0.896 |
| GAGCTAGCATGGACCGGTTTTCCCGGTAATCCGTATTTGAA (site GAGCTAGCTTT) | 2.14 |
| GAGCTAGCATGGACCGGTTTTCCCGGTAATCCGTATTTGAA (site TAGCTAGCTTT) | 1.63 |
| GAGCTCACATGGACCGGTTTTCCCGGTAATCCGTATTTGAA (site GAGCTCACTAT) | 0.839 |
| GAGCTCACATGGACCGGTTTTCCCGGTAATCCGTATTTGAA (site GAGCTCACTCT) | 0.0248 |
| GAGCTCACATGGACCGGTTTTCCCGGTAATCCGTATTTGAA (site GAGCTCACTGT) | 0.716 |
| GAGCTCACATGGACCGGTTTTCCCGGTAATCCGTATTTGAA (site GAGCTCACTTT) | 1.43 |
| GAGCTCACATGGACCGGTTTTCCCGGTAATCCGTATTTGAG (site GAGCTCACTAT) | 0.277 |
| GAGCTCACATGGACCGGTTTTCCCGGTAATCCGTATTTGAG (site GAGCTCACTCT) | 0.665 |
| GAGCTCACATGGACCGGTTTTCCCGGTAATCCGTATTTGAG (site GAGCTCACTGT) | 0 |
| GAGCTCACATGGACCGGTTTTCCCGGTAATCCGTATTTGAG (site GAGCTCACTTT) | 0.00749 |
| GAGCTCCCATGGACCGGTTTTCCCGGTAATCCGTATTTGAT (site GAGCTCACTAT) | 0.00938 |
| GAGCTCCCATGGACCGGTTTTCCCGGTAATCCGTATTTGAT (site GAGCTCCCTAT) | 1.07 |
| GAGCTCCCATGGACCGGTTTTCCCGGTAATCCGTATTTGAT (site GAGCTCGCTAT) | 0 |
| GAGCTCCCATGGACCGGTTTTCCCGGTAATCCGTATTTGAT (site GAGCTCTCTAT) | 2 |
| GAGCTCTCATGGACCGGTTTTCCCGGTAATCCGTATTTGAT (site GAGCTCACTAT) | 0.0184 |
| GAGCTCTCATGGACCGGTTTTCCCGGTAATCCGTATTTGAT (site GAGCTCCCTAT) | 1.06 |
| GAGCTCTCATGGACCGGTTTTCCCGGTAATCCGTATTTGAT (site GAGCTCGCTAT) | 0.0051 |
| GAGCTCTCATGGACCGGTTTTCCCGGTAATCCGTATTTGAT (site GAGCTCTCTAT) | 2.58 |
| GAGCTTCCATGGACCGGTTTTCCCGGTAATCCGTATTTGTC (site GAGCTTCCTGA) | 0.576 |
| GAGGAATCATGGACCGGTTTTCCCGGTAATCCGTATTTGCG (site AAGGAATCTCG) | 2.23 |
| GAGGAATCATGGACCGGTTTTCCCGGTAATCCGTATTTGCG (site CAGGAATCTCG) | 2.04 |
